We go through nine molecules from paper PMC8533089, “Characteristics of Neurokinin-3 Receptor and Its Binding Sites by Mutational Analysis” (Biology, 2021).

Like-named read-outs stand apart in the source and are kept apart here. Where no end group is shown, it is not given here.

One experiment deals with FSH levels. The settings on record: daily oral dosing throughout the menstrual cycle; cited from earlier work. From the text: (§1) The effect of NKB/NKF peptides on gonadotropin secretion in fish is already well established. The first indication that NKB is widely expressed in fish species and has a stimulatory reproductive effect was shown in zebrafish, goldfish, and tilapia. […] Osetanant re ...

Another experiment concerns the target tiTac3Ra (Oreochromis niloticus, UniProt A0A075QPN8). Description: CRE-Luc antagonist assay, wild-type receptor, COS-7. In kind it is cell-based, tilapia (Oreochromis niloticus). The settings on record: for IC50: antagonist 0.001–1000 μM added 10 min before peptide, COS-7, CRE-Luc. The protocol:
(§2) In order to study the signaling pathways of the mutant tiTac3Ra, the entire coding regions of tiTac3Ra (GenBank accession no. KF471674), and both of the mutant receptors were inserted into pcDNA3.1 (Invitrogen, Massachusetts, United States). We used a sensitive luciferase (LUC) reporter gene assay. […] Transient transfection, cell procedures and stimulation protocols followed the procedures previously described. Briefly, 3 μg of each construct, together with 3 μg of a luciferase reporter plasmid were transiently transfected into COS-7 cells (American Type Culture Collection, Manassas, VA, USA). Forty-eight hours after transfection, cells transfected with Tac3Ra plasmid fused with GFP were applied with an Hoechst dye (Invitrogen, Massachusetts, United States; diluted 1:1000) in order to mark nuclei in the culture for transfection analysis.
Non-peptide molecules, SB-222200 (Sigma, Merck, Darmstadt, Germany) and Osanetant (Axon Medchem, Reston, VA, USA), known to antagonize mammalian NK3R [49] were studied for their ability to antagonize tiTac3Ra, which was activated with a fixed dose of the native ligands (10 nM tiNKB or tiNKF), combined with increasing doses of the antagonists (0.001–1000 μM). The antagonists were added 10 min prior to the addition of the peptides. IC50 values were calculated from concentration response curves by means of computerized nonlinear curve-fitting with Prism version 9 software (GraphPad, San Diego, CA, USA). All experiments were repeated at least 3 times using cells from independent transfections, each performed in triplicate.
NKB antagonists, SB-222200 (Figure 7A) and Osanetant (Figure 7B) were added in increasing concentrations (0.001–1000 μM) to transfected COS-7 that expressed tiTac3Ra. Ten minutes after the induction of the antagonists, the ligand, tiNKB or tiNKF (10 nM) was added to the media.

Another experiment has as its system FSH plasma levels. Description: In vivo effect of NKB antagonists on FSH plasma levels (ELISA). On the set-up: species or system adult male tilapia (Oreochromis niloticus). The settings on record: antagonist 100 µg/kg BW IP, sGnRHa 10 µg/kg BW after 0.5 h; n = 10. The protocol: (§3) The levels of FSH, LH and GH in the plasma were measured by specific competitive enzyme-linked immunosorbent assay (ELISA), developed for tilapia, based on recombinant gonadotropins or GH that were created by using the yeast Pichia pastoris. For the ELISAs, we used primary antibody antisera against GH [51], FSHβ [52], or against rtLHβ [53], and rtFSHβα [52], rtLHβ [53] or tiGH for the standard curves. Sensitivity for the plasma measurements were 15.84 pg/mL for LH, 0.24 pg/mL for FSH and 30.0 pg/mL for GH. The inter-assay coefficient of variation (CV) was 14.8, 12.5, and 13.0%, while intra-assay CV was 7.2, 8.0, and 8.0% for LH, FSH and GH, respectively.
Adult male tilapia (BW 89.29 ± 32.93 g; gonado-somatic index (GSI) 0.24% ± 0.40%) were injected IP (intraperitoneal) with NKB antagonists, SB-222200 or Osanetant (100 µg/kg BW), and after 0.5 h, a second injection of sGnRHa (10 µg/kg BW) was added. Control groups were injected with sGnRHa ([DAla^6, Pro^9-Net]-mammalian GnRH; Bachem, Budendorf, Switzerland) 10 µg/kg BW) as a positive control. The fish were bled from the caudal blood vessels into heparinized syringes 0, 0.5, 2, 6 and 24 h after injection. This time course is according to standard protocols used previously to test the effect of GnRH on circulating levels of LH, FSH, and GH in tilapia. […]
Background: In an ELISA, binding on a coated surface is turned into a signal by an enzyme label.

A further experiment relates to LH plasma levels. Briefly: In vivo effect of NKB antagonists on LH plasma levels (ELISA). On the set-up: species or system adult male tilapia (Oreochromis niloticus). The settings on record: antagonist 100 µg/kg BW IP, then sGnRHa 10 µg/kg BW after 0.5 h; n = 10. As to the method: as §3
Adult male tilapia (BW 89.29 ± 32.93 g; gonado-somatic index (GSI) 0.24% ± 0.40%) were injected IP (intraperitoneal) with NKB antagonists, SB-222200 or Osanetant (100 µg/kg BW), and after 0.5 h, a second injection of sGnRHa (10 µg/kg BW) was added. Control groups were injected with sGnRHa ([DAla^6, Pro^9-Net]-mammalian GnRH; Bachem, Budendorf, Switzerland) 10 µg/kg BW) as a positive control. The fish were bled from the caudal blood vessels into heparinized syringes 0, 0.5, 2, 6 and 24 h after injection. This time course is according to standard protocols used previously to test the effect of GnRH on circulating levels of LH, FSH, and GH in tilapia. Blood samples were collected from the caudal vasculature and centrifuged (3200 rpm for 30 min at 4 °C) (Centrifuge: Fresco 17, Rotor: 75003424, Thermo Scientific™, Langenselbold Germany) to obtain plasma samples, which were stored at −20 °C until assayed. Three independent experiments were carried out for the in-vivo studies.

Another experiment relates to FSH and LH release. The settings on record: in vivo and in vitro; cited from earlier work.
Source text: as §1

Experiment [1] has as its target native tilapia Tac3Ra (WT). Briefly: CRE-Luc receptor transactivation assay, wild-type receptor, COS-7. In kind it is cell-based, tilapia (Oreochromis niloticus). As to the method: as §2
(§4) Cells transfected with the tiTac3Ra construct and luciferase reporter plasmid were treated with tilapia NKB (tiNKB) and tiNKF at increasing doses (0.2–1000 nM). Luciferase activity (Luc) was measured, and compared to basal treatment, and the maximal effect (Luc fold activation) was calculated for each treatment.

The subject of another experiment is tiTac3Ra mutant F251A. Briefly: CRE-Luc receptor transactivation assay, F251A mutant, COS-7. In kind it is cell-based, tilapia (Oreochromis niloticus).
Source text: (§5) The expression vector for tilapia tiTac3Ra (GenBank accession no. KF471674) was modified with the Stratagene QuikChange mutagenesis kit (Stratagene, La Jolla, CA, USA), according to the manufacturer’s instructions using two complementary primers (Table 1). The procedure included 18 PCR cycles as specified by the manufacturer’s manual, and the use of Pfu polymerase for the reaction. The mutated construct was then digested with the restriction enzyme DpnI, which is specific to methylated and hemi-methylated DNA, to digest the template and to select the mutation-containing synthesized DNA. The vector was then transfected into XL1 competent cells (E.coli). Two colonies were sequenced and confirmed to contain the mutation without any undesired misincorporation of nucleotides.
(§6) In order to study the signaling pathways of the mutant tiTac3Ra, the entire coding regions of tiTac3Ra (GenBank accession no. KF471674), and both of the mutant receptors were inserted into pcDNA3.1 (Invitrogen, Massachusetts, United States). We used a sensitive luciferase (LUC) reporter gene assay. […]
as §4

The next experiment deals with tiTac3Ra mutant M289A. Briefly: CRE-Luc receptor transactivation assay, M289A mutant, COS-7. In kind it is cell-based, tilapia (Oreochromis niloticus).
Source text: as §5, §6, §4

Experiment [2] concerns the target tiTac3Ra F251A mutant (Nile tilapia (Oreochromis niloticus)).
Experiment [3] concerns the target tilapia Tachykinin 3 receptor a (tiTac3Ra), wild type (Nile tilapia (Oreochromis niloticus)).
For experiment [4], the target named is tiTac3Ra M289A mutant (Nile tilapia (Oreochromis niloticus)).

tiTac3Ra, sequence (A0A075QPN8 entry or part of it): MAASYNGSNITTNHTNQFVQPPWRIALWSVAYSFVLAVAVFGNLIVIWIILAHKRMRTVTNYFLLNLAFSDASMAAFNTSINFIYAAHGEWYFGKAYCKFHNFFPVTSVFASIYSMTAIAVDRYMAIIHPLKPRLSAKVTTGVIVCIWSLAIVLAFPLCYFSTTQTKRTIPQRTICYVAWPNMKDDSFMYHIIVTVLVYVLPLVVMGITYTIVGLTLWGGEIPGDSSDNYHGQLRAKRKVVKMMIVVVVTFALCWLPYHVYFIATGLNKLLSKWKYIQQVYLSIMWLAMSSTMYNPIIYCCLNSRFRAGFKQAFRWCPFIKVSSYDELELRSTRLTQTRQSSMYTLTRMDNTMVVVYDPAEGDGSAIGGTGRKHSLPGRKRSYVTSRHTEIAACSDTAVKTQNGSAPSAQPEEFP

Take `Cc1nsc(-c2nnc3n2CCN(C(=O)c2ccc(F)cc2)[C@@H]3C)n1` [ESN364]: in the experiment with FSH levels, the FSH levels entry is “did not alter FSH levels”.
For orientation: IC50 means the midpoint of a concentration-inhibition curve. Take `CC(=O)N(C)C1(c2ccccc2)CCN(CCC[C@]2(c3ccc(Cl)c(Cl)c3)CCCN(C(=O)c3ccccc3)C2)CC1` [Osanetant]: the IC50 on tiTac3Ra (10 nM tiNKB, read-out: IC50 versus tiNKB) was determined as 212000 nM; on tiTac3Ra (10 nM tiNKF, read-out: IC50 versus tiNKF), 122000 nM. Moreover, the “inhibitory effect on Tac3Ra activation” value at tiTac3Ra (in words) is recorded as “strong inhibitory effect”. Also, in the experiment with FSH plasma levels, the “FSH levels, 2 h post injection, combination with sGnRHa” value is “increased FSH levels”. In the experiment with LH plasma levels, the “LH release, combination with sGnRHa” value is recorded as “no inhibitory effects on LH plasma levels”.
For “Succ-Asp-Ile-Phe-N(Me)Ile-Gly-Leu-Met-NH2 [tiNKB analog, tiNKB analog (Succ-Asp-Ile-Phe-N(Me)Ile-Gly-Leu-Met-NH2)]”, the “FSH and LH release” value with FSH and LH release is “significantly increased FSH and LH release both in-vivo and in-vitro”.
For “Succ-Asp-Ile-Phe-N(Me)Val-Gly-Leu-Met-NH2 [zfNKBa analog, zfNKBa analog (Succ-Asp-Ile-Phe-N(Me)Val-Gly-Leu-Met-NH2)]”, the “FSH and LH release” value in the experiment on FSH and LH release was “significantly increased FSH and LH release both in-vivo and in-vitro”.
Regarding “Succ-Asp-Phe-N(Me)Val-Gly-Leu-Met-NH2 [zfNKBb analog, zfNKBb analog (Succ-Asp-Phe-N(Me)Val-Gly-Leu-Met-NH2)]”, the “FSH and LH release” value in the experiment with FSH and LH release is “significantly increased FSH and LH release both in-vivo and in-vitro”.
Take “Succ-Asp-Ser-Phe-N(Me)Val-Gly-Leu-Met-NH2 [NKF analog, NKF analog (Succ-Asp-Ser-Phe-N(Me)Val-Gly-Leu-Met-NH2)]”: the “FSH and LH release” value in the experiment with FSH and LH release is “significantly increased FSH and LH release both in-vivo and in-vitro”.
Usually EC50 stands for the concentration at which the effect is half-maximal. On to “pyroglutaminated [p]-EMDDIFIGLM-NH2 [tiNKB, native tilapia Neurokinin B peptide, synthesized by GL Biochem]”, for which the EC50 in experiment [1] (CRE-Luc, COS-7, 0.2–1000 nM, calculated when max effect >2.0) was 2.48 ± 0.05 nM. In addition, in experiment [1] (CRE-Luc, COS-7, WT), the Min effective dose stood at 0.316 nM. The “Max effect (Luc fold activation)” value in experiment [1] (WT, COS-7, CRE-Luc, vs basal, 0.2–1000 nM) is listed as 3.36 ± 0.46 Luc fold activation; in the experiment with tiTac3Ra mutant F251A (F251A, COS-7, CRE-Luc, vs basal, 0.2–1000 nM), 2.0 ± 0.32 Luc fold activation; in the experiment on tiTac3Ra mutant M289A (M289A, COS-7, CRE-Luc, vs basal, 0.2–1000 nM), 1.71 ± 0.46 Luc fold activation. The “receptor activity of mutant versus WT (CRE-luciferase)” value was “substantial decrease in receptor activity” in the experiment on tiTac3Ra mutant F251A (Phe251^6.44Ala, 0.2–1000 nM peptide) and “substantial decrease in receptor activity” in the experiment with tiTac3Ra mutant M289A (Met289^7.43Ala, 0.2–1000 nM peptide).
In experiment [2], YNDLDYDSFVGLM-NH2 [Tilapia NKF (neurokinin F)] gave a Max effect (Luc fold activation), CRE-luciferase receptor transactivation in transfected COS-7 cells, peptide 0.2-1000 nM (Luc fold activation) of 1.99. Besides, in [3], the EC50 (nM) of CRE-luciferase receptor transactivation in transfected COS-7 cells, peptide 0.2-1000 nM was found to be 65.2 nM; the Max effect (Luc fold activation), CRE-luciferase receptor transactivation in transfected COS-7 cells, peptide 0.2-1000 nM (Luc fold activation) was determined as 3.87; the Min effective dose (nM), CRE-luciferase receptor transactivation in transfected COS-7 cells is 0.316 nM. For the same molecule, in [4], the Max effect (Luc fold activation), CRE-luciferase receptor transactivation in transfected COS-7 cells, peptide 0.2-1000 nM (Luc fold activation) came out at 1.84.

B1: Tilapia NKB (neurokinin B) (peptide)
peptide: EMDDIFIGLM
HELM: PEPTIDE1{[Glp].M.D.D.I.F.I.G.L.M.[am]}$$$$V2.0
SMILES: CC[C@H](C)[C@H](NC(=O)[C@H](Cc1ccccc1)NC(=O)[C@@H](NC(=O)[C@H](CC(=O)O)NC(=O)[C@H](CC(=O)O)NC(=O)[C@H](CCSC)NC(=O)[C@@H]1CCC(=O)N1)[C@@H](C)CC)C(=O)NCC(=O)N[C@@H](CC(C)C)C(=O)N[C@@H](CCSC)C(N)=O
Molecule B1 displayed a Max effect (Luc fold activation), CRE-luciferase receptor transactivation in transfected COS-7 cells, peptide 0.2-1000 nM (Luc fold activation) in experiment [2] of 2. In addition, in experiment [3], the EC50 (nM) of CRE-luciferase receptor transactivation in transfected COS-7 cells, peptide 0.2-1000 nM was 2.48 nM; the Max effect (Luc fold activation), CRE-luciferase receptor transactivation in transfected COS-7 cells, peptide 0.2-1000 nM (Luc fold activation) was 3.36; the Min effective dose (nM), CRE-luciferase receptor transactivation in transfected COS-7 cells was found to be 0.316 nM. In addition, in experiment [4], the Max effect (Luc fold activation), CRE-luciferase receptor transactivation in transfected COS-7 cells, peptide 0.2-1000 nM (Luc fold activation) stood at 1.71.
